Test: xn = mol fraction of the nth substance listed

COCCOCCOC + ClC(Cl)(Cl)Cl
298.15 K, 101.33 kPa
Details | viscosity [mPa·s]
x1 = 0.0934 | 0.965
x1 = 0.1967 | 0.995
x1 = 0.3018 | 1.023
x1 = 0.4053 | 1.044
x1 = 0.4892 | 1.059
x1 = 0.5352 | 1.06
x1 = 0.592 | 1.057
x1 = 0.6503 | 1.052
x1 = 0.6902 | 1.043
x1 = 0.7963 | 1.031
x1 = 0.8656 | 1.019
x1 = 0.9021 | 1.011
x1 = 0.9343 | 1.001

COCCOCCOC + ClC(Cl)Cl
298.15 K, 101.33 kPa
Details | viscosity [mPa·s]
x1 = 0.0986 | 0.727
x1 = 0.2039 | 0.946
x1 = 0.2993 | 1.028
x1 = 0.3966 | 1.082
x1 = 0.4825 | 1.094
x1 = 0.5247 | 1.093
x1 = 0.5864 | 1.08
x1 = 0.6365 | 1.072
x1 = 0.7006 | 1.054
x1 = 0.7976 | 1.033
x1 = 0.8985 | 1.011
x1 = 0.9325 | 1.008

Oc1ccccc1 + Clc1ccccc1
293.15 K, 101 kPa
Details | viscosity [mPa·s]
x1 = 0.0584 | 0.825
x1 = 0.115 | 0.888
x1 = 0.2493 | 1.122
x1 = 0.3435 | 1.274
x1 = 0.4323 | 1.673
x1 = 0.5436 | 2.218
x1 = 0.6243 | 2.748
x1 = 0.7492 | 4.07
x1 = 0.84 | 5.555

Oc1ccccc1 + Nc1ccccc1
101 kPa
Details | viscosity [mPa·s]
293.15 K, x1 = 0.0786 | 5.09
293.15 K, x1 = 0.1517 | 6.1
293.15 K, x1 = 0.2315 | 7.35
293.15 K, x1 = 0.3105 | 8.89
293.15 K, x1 = 0.3914 | 10.59
293.15 K, x1 = 0.473 | 12.15
293.15 K, x1 = 0.5355 | 13.2
293.15 K, x1 = 0.6225 | 14.18
293.15 K, x1 = 0.693 | 14.47
293.15 K, x1 = 0.7683 | 14.21
293.15 K, x1 = 0.8489 | 13.31
293.15 K, x1 = 0.922 | 12.21
303.15 K, x1 = 0.0741 | 3.66
303.15 K, x1 = 0.1582 | 4.34
303.15 K, x1 = 0.2314 | 5.07
303.15 K, x1 = 0.3142 | 5.95
303.15 K, x1 = 0.3889 | 6.85
303.15 K, x1 = 0.4691 | 7.7
303.15 K, x1 = 0.5374 | 8.36
303.15 K, x1 = 0.6159 | 8.89
303.15 K, x1 = 0.6906 | 9.07
303.15 K, x1 = 0.7667 | 8.89
303.15 K, x1 = 0.8466 | 8.34
303.15 K, x1 = 0.9243 | 7.68
308.1 K, x1 = 0.349 | 5.39
308.1 K, x1 = 0.511 | 6.54
308.1 K, x1 = 0.677 | 7.21
308.1 K, x1 = 0.795 | 6.92
313.15 K, x1 = 0.0741 | 2.74
313.15 K, x1 = 0.1582 | 3.15
313.15 K, x1 = 0.2314 | 3.61
313.15 K, x1 = 0.3142 | 4.1
313.15 K, x1 = 0.3889 | 4.61
313.15 K, x1 = 0.4691 | 5.1
313.15 K, x1 = 0.5374 | 5.45
313.15 K, x1 = 0.6159 | 5.73
313.15 K, x1 = 0.6906 | 5.83
313.15 K, x1 = 0.7667 | 5.73
313.15 K, x1 = 0.8466 | 5.46
313.15 K, x1 = 0.9243 | 5.11

C1N2CN3CN1CN(C2)C3 + O
101 kPa
Details | viscosity [mPa·s]
293.15 K, x1 = 0.003601 | 1.028
293.15 K, x1 = 0.007176 | 1.072
293.15 K, x1 = 0.01043 | 1.127
293.15 K, x1 = 0.01396 | 1.205
293.15 K, x1 = 0.01775 | 1.308
297.35 K, x1 = 0.022 | 1.515
297.35 K, x1 = 0.031 | 1.736
297.35 K, x1 = 0.041 | 2.087
297.55 K, x1 = 0.052 | 2.537
298.15 K, x1 = 0.003601 | 0.928
298.15 K, x1 = 0.007176 | 0.979
298.15 K, x1 = 0.01043 | 1.033
298.15 K, x1 = 0.01396 | 1.101
298.15 K, x1 = 0.01775 | 1.185
300.15 K, x1 = 0.003601 | 0.83
300.15 K, x1 = 0.007176 | 0.874
300.15 K, x1 = 0.01043 | 0.922
300.15 K, x1 = 0.01396 | 0.982
300.15 K, x1 = 0.01775 | 1.058
302.15 K, x1 = 0.022 | 1.389
302.35 K, x1 = 0.031 | 1.627
302.35 K, x1 = 0.052 | 2.222
302.75 K, x1 = 0.041 | 1.832
305.15 K, x1 = 0.003601 | 0.74
305.15 K, x1 = 0.007176 | 0.777
305.15 K, x1 = 0.01043 | 0.822
305.15 K, x1 = 0.01396 | 0.884
305.15 K, x1 = 0.01775 | 0.967
306.95 K, x1 = 0.031 | 1.483
307.35 K, x1 = 0.022 | 1.321
307.35 K, x1 = 0.041 | 1.689
307.35 K, x1 = 0.052 | 2.056
311.95 K, x1 = 0.022 | 1.251
312.15 K, x1 = 0.031 | 1.375
312.15 K, x1 = 0.041 | 1.595
312.15 K, x1 = 0.052 | 1.864

CO/N=C(\C(=O)N[C@@H]1C(=O)N2C(C(=O)[O-])=C(CSc3nc(=O)c(=O)[n-]n3C)CS[C@H]12)c1csc(N)n1.[Na+].[Na+] + O
viscosity [mPa·s], 100 kPa
Details | 293.15 K | 298.15 K | 303.15 K | 308.15 K | 313.15 K
x1 = 9e-05 | 1.012 | 0.8968 | 0.8033 | 0.7267 | 0.6584
x1 = 0.00018 | 1.016 | 0.9026 | 0.807 | 0.7308 | 0.6615
x1 = 0.000349 | 1.053 | 0.935 | 0.829 | 0.744 | –
x1 = 0.000873 | 1.12 | 0.994 | 0.885 | 0.794 | –
x1 = 0.0009 | 1.03 | 0.9163 | 0.8185 | 0.7413 | 0.6726
x1 = 0.00139 | 1.2 | 1.062 | 0.945 | 0.849 | –
x1 = 0.002501 | 1.399 | 1.231 | 1.1 | 0.982 | –
x1 = 0.003119 | 1.527 | 1.348 | 1.195 | 1.07 | –
x1 = 0.003887 | 1.701 | 1.495 | 1.323 | 1.184 | –
x1 = 0.004766 | 1.918 | 1.674 | 1.48 | 1.322 | –
x1 = 0.005482 | 2.122 | 1.858 | 1.638 | 1.455 | –

CO/N=C(\C(=O)N[C@@H]1C(=O)N2C(C(=O)[O-])=C(CSc3nc(C)c(CC(=O)[O-])s3)CS[C@H]12)c1csc(N)n1.[Na+].[Na+] + O
Details | viscosity [mPa·s]
293.15 K, 101 kPa, x1 = 0.002695 | 1.285

NCCC(=O)N[C@@H](Cc1c[nH]cn1)C(=O)O + O
viscosity [mPa·s], 100 kPa
Details | x1 = 0.000358 | x1 = 0.00054 | x1 = 0.000713 | x1 = 0.00108 | x1 = 0.00126 | x1 = 0.00143 | x1 = 0.00162
293.15 K | 1.024 | 1.028 | 1.03 | 1.046 | 1.053 | 1.058 | 1.06
298.15 K | 0.908 | 0.909 | 0.915 | 0.928 | 0.933 | 0.938 | 0.938
303.15 K | 0.813 | 0.814 | 0.818 | 0.831 | 0.835 | 0.839 | 0.84
308.15 K | 0.732 | 0.733 | 0.738 | 0.747 | 0.752 | 0.756 | 0.756
313.15 K | 0.663 | 0.664 | 0.669 | 0.676 | 0.681 | 0.683 | 0.685

O=S(=O)([O-])[O-].[NH3+]O.[NH3+]O + O
viscosity [mPa·s], 101 kPa
Details | x1 = 0.001 | x1 = 0.002 | x1 = 0.006 | x1 = 0.012 | x1 = 0.019 | x1 = 0.027 | x1 = 0.035 | x1 = 0.045
293.15 K | 1.022 | 1.046 | 1.134 | 1.264 | 1.435 | 1.678 | 1.925 | 2.198
298.15 K | 0.905 | 0.931 | 0.995 | 1.121 | 1.277 | 1.481 | 1.706 | 1.983
303.15 K | 0.811 | 0.831 | 0.89 | 1.006 | 1.148 | 1.317 | 1.523 | 1.849
313.15 K | 0.666 | 0.683 | 0.734 | 0.825 | 0.937 | 1.075 | 1.244 | 1.508
323.15 K | 0.559 | 0.573 | 0.616 | 0.693 | 0.791 | 0.901 | 1.04 | 1.247

From the CheMixHub viscosity set
